Assay results taken from patent US20100069487A1, “METHOD FOR THE TREATMENT OF PSORIASIS” (REDOX PHARMACEUTICAL CORPORATION, priority 2006, published 2010).

Assays:
Papillomaviruses = conditions: cited from earlier work
[1] = in vivo
Description: • 1. It was recently discovered that the transcription factor Zinc-finger protein Gli-similar (Glisl) is found only in psoriatic and not in the epidermis of healthy skin^2. The expression of this protein is restricted to the suprabasal level of the psoriatic epidermis. […] The mode of action of the drug involves displacement Zinc from the protein by the axial ligation of the drug's cobalt (III) complex to the nitrogen of the imidazole ring of the histidine residues. The zinc-finger bearing protein is thus inactivated^4. • We have discovered that Doxovir (CTC-96) will inactivate Glis1 in Psoriatic epidermis and as a result may selectively retard the abnormal proliferation and differentiation of psoriatic keratinocytes. • 2. There have been several reports of the possibility that Human Papilloma Viruses (HPVs) are associated with at least certain manifestations of psoriasis (e.g. ^5,6,7,8). Papillomaviruses proliferate and affect the differentiation and proliferation of keratinocytes. The possible role of the virus (particularly HPV type 5) in the etiology or the maintenance of the abnormal differentiation of psoriatic human skin keratinocytes has thus been postulated. • JunB protein, a component of the ubiquitous transcription factor AP-1, regulates cell proliferation, differentiation, stress responses and cytokine expression in various tissues. […]

[2] = tested on: type II collagen-induced arthritis; conditions: mice; cited from earlier work
[3] = tested on: Zinc-fingers in which the Zinc is tetrahedrally coordinated to cysteines and histidines; conditions: cysteine/histidine-coordinated Zinc; cited from earlier work

For `CC(/C=C(/C)[O-])=NCCN=C(C)/C=C(/C)[O-].Cc1ncc[nH]1.Cc1ncc[nH]1.[Br-].[Co+3]` [Doxovir], the anti-papillomavirus activity (Papillomaviruses) is given as “distinct anti-papillomavirus activity”, the “adverse effects on intact skin” value [1] is given as “no adverse effects on intact skin” and the “therapeutic activity for type II collagen-induced arthritis” value [2] is given as “proven to have therapeutic activity”. The “disruption of structure and function of Zinc-fingers” value [3] was “selectively disrupts the structure and function of Zinc-fingers”.
